Measured values published in PubChem BioAssay (NCI).
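Following 48 hours of exposure in 96-well plates, responses at five concentrations were used to interpolate endpoints linearly. TGI denotes the concentration required for complete inhibition of growth.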

Tests used:
Assay in all cases: DTP human tumour cell line panel, 48 h
[1] = system: A549 NSCLC
[2] = system: CAKI-1 renal
[3] = system: DU-145 prostate
[4] = system: HCT-116 colon
[5] = system: HL-60(TB) leukemia
[6] = system: HT29 colon
[7] = system: IGROV1 ovarian
[8] = system: KM12 colon
[9] = system: LOX IMVI melanoma
[10] = system: MDA-MB-231 breast
[11] = system: MDA-MB-435
[12] = system: NCI-H522 lung
[13] = system: OVCAR-3 ovarian
[14] = system: RXF 393 renal
[15] = system: SW-620 colon
[16] = system: T-47D breast
[17] = system: UACC-257 melanoma
[18] = system: COLO 205 colon
[19] = system: PC-3 prostate
[20] = system: SK-MEL-2 melanoma

SMILES | TGI [1] [µM] | TGI [2] [µM] | TGI [3] [µM] | TGI [4] [µM] | TGI [5] [µM] | TGI [6] [µM] | TGI [7] [µM] | TGI [8] [µM] | TGI [9] [µM] | TGI [10] [µM] | TGI [11] [µM] | TGI [12] [µM] | TGI [13] [µM] | TGI [14] [µM] | TGI [15] [µM] | TGI [16] [µM] | TGI [17] [µM] | TGI [18] [µM] | TGI [19] [µM] | TGI [20] [µM]
COC(=O)c1cc(C)ccc1C1CN=NC12Cc1cccc(C)c1C2=O (stereo not drawn) | > 100 | > 100 | > 100 | 70.5 | 32.8 | > 100 | > 100 | 79.7 | 53 | 75.5 | 61.8 | 89.6 | > 100 | > 100 | > 100 | 35.6 | > 100 | – | – | –
c1ccc2sc(C3(N4CCC5(CC4)OCCO5)CCCCC3)cc2c1 | > 100 | > 100 | > 100 | > 100 | 54.9 | 86.4 | > 100 | > 100 | > 100 | – | > 100 | > 100 | > 100 | > 100 | > 100 | > 100 | > 100 | > 100 | – | –
Cc1cn([C@H]2C[C@@H]3[C@@H](COC(CCl)N3O)O2)c(=O)[nH]c1=O (stereo partly drawn) | > 100 | > 100 | > 100 | > 100 | > 100 | > 100 | > 100 | > 100 | > 100 | – | > 100 | > 100 | > 100 | > 100 | > 100 | > 100 | > 100 | > 100 | > 100 | > 100
C/C=C1\CNC1C(=O)O (stereo not drawn) | > 100 | > 100 | – | > 100 | > 100 | > 100 | > 100 | – | > 100 | – | > 100 | – | > 100 | – | > 100 | – | > 100 | > 100 | > 100 | > 100
Cn1c(=O)n2c(-c3ccccc3)c(-c3ccccc3)n2c1=O | > 100 | > 100 | – | > 100 | > 100 | > 100 | > 100 | > 100 | > 100 | > 100 | – | – | > 100 | > 100 | > 100 | – | > 100 | > 100 | > 100 | > 100
CC(C)[Si](OC1=C(C(=O)N(C)c2ccccc2Cl)CCCCC1)(C(C)C)C(C)C | > 100 | > 100 | > 100 | > 100 | – | > 100 | > 100 | > 100 | > 100 | > 100 | > 100 | > 100 | > 100 | > 100 | > 100 | > 100 | > 100 | > 100 | – | –
CC1C2(C)OC(=N)C(C#N)(C(C)O2)C1(C#N)C#N (stereo not drawn) | > 100 | 26.4 | 87 | 65 | 41.1 | > 100 | > 100 | > 100 | 41.4 | 41.6 | – | – | 51.5 | 35.7 | 43 | > 100 | 46 | 24.5 | > 100 | 46.6
CN(C)C1(N(C)C)Oc2c(c(=O)n(C)c(=O)n2C)C(c2ccccc2Br)C1(F)F (stereo not drawn) | > 100 | > 100 | > 100 | > 100 | – | – | – | > 100 | > 100 | > 100 | > 100 | – | > 100 | > 100 | > 100 | > 100 | > 100 | > 100 | > 100 | > 100
C=C1CC2CC(=O)C(O)C(C1)C2 (stereo not drawn) | > 100 | > 100 | > 100 | > 100 | > 100 | > 100 | – | > 100 | > 100 | – | > 100 | > 100 | > 100 | > 100 | > 100 | > 100 | > 100 | > 100 | – | –
CC(=O)O[C@H]1CC[C@@]2(C)C(=C[C@H](c3ccc(O)cc3)[C@H]3[C@@H]4CC[C@H](OC(C)=O)[C@@]4(C)CC[C@@H]32)C1 | 40.5 | 53.4 | 48.8 | 29.7 | 58 | 26.5 | – | 31 | 27.1 | 35.8 | 62.6 | – | 38.8 | 51.1 | 46.2 | – | 51.6 | 35.2 | 46.2 | 48.4
Cc1c(NC(=O)c2cc([N+](=O)[O-])cc([N+](=O)[O-])c2)c(=O)n(-c2ccccc2)n1C | > 100 | > 100 | > 100 | > 100 | > 100 | > 100 | > 100 | > 100 | > 100 | > 100 | > 100 | – | > 100 | > 100 | > 100 | – | > 100 | 52.2 | > 100 | > 100
CN(C)CCNC1=CC(=O)c2nc3ccccc3c3ccnc1c23 | 26.3 | 18.9 | 22.4 | 14.8 | 16.8 | 14.2 | 14.8 | 17.4 | 5.94 | 16 | 20 | 16.2 | 16.4 | – | 18 | – | 22.6 | 9.21 | 17.2 | 20.7
CC(C)(O)CO/N=C1\C(c2c(O)[nH]c3ccccc23)=Nc2ccccc21 | 11.1 | 2.32 | > 22.2 | > 100 | 3.1 | > 35 | 13.9 | 4.71 | > 24.3 | > 75.7 | > 42.3 | > 47.8 | 5.95 | 2.48 | > 86.4 | – | > 96.4 | 2.29 | 12.4 | 3.2
C=C(Br)C(C)(Br)CCC(Br)C(C)(C)Br (stereo not drawn) | > 100 | > 100 | – | 47.7 | 62.3 | > 100 | 39 | > 100 | 31 | – | – | 28.3 | – | > 100 | 70.9 | – | > 100 | 35.8 | – | 55.7
C(=NCCCN1CCN(CCCN=Cc2cccc3ccccc23)CC1)c1cccc2ccccc12 | > 100 | > 100 | – | > 100 | – | > 100 | > 100 | > 100 | > 100 | > 100 | 96.8 | > 100 | > 100 | 78.2 | > 100 | > 100 | > 100 | > 100 | > 100 | > 100
CO/N=C(\C(=O)Nc1cncs1)c1csc(N)n1 | > 10 | > 10 | > 10 | > 10 | – | > 10 | > 10 | > 10 | > 10 | > 10 | > 10 | > 10 | > 10 | – | > 10 | > 10 | > 10 | > 10 | > 10 | –
COC(=O)c1ccc(COC(=O)N2C=CCC2C(=O)O)cc1 (stereo not drawn) | > 100 | > 100 | > 100 | – | – | > 100 | > 100 | > 100 | – | > 100 | > 100 | > 100 | > 100 | > 100 | > 100 | – | > 100 | > 100 | > 100 | > 100
N#C/C(C(=S)Nc1ccccc1)=C(/N)N1CCCC1 | > 100 | 92.5 | > 100 | > 100 | > 100 | > 100 | > 100 | > 100 | > 100 | > 100 | > 100 | > 100 | > 100 | > 100 | > 100 | – | > 100 | > 100 | > 100 | > 100
CC(C)n1c(=O)[nH]n(-c2ccccc2)c1=O | > 100 | > 100 | > 100 | > 100 | > 100 | > 100 | > 100 | > 100 | > 100 | > 100 | > 100 | > 100 | > 100 | > 100 | > 100 | – | > 100 | > 100 | > 100 | > 100
CCCNC(=O)Cn1c(C)cc2ccccc21 | > 100 | > 100 | > 100 | > 100 | > 100 | > 100 | > 100 | > 100 | > 100 | – | > 100 | > 100 | > 100 | > 100 | > 100 | > 100 | > 100 | > 100 | > 100 | > 100
CSc1nc2c(c(=O)[nH]1)N=C(c1ccc(Cl)cc1)CC(c1ccccc1)N2 (stereo not drawn) | 26.4 | 34.2 | 42.1 | 51.4 | 39.6 | 31.4 | 29.5 | 30 | 44.2 | 30.8 | 38.3 | 29.4 | 28.5 | 34.4 | 39.1 | – | 34.3 | 34 | 45.3 | 31.7
